The source of these data is patent publication US20070219174A1, “METHODS OF TREATING CANCER USING HYPOFRACTIONATED RADIATION AND TEXAPHYRINS” (Pharmacyclics, Inc., priority 2006, published 2007).

For data set [1], the system named is brain metastases. Nature of the data set: MRI of brain metastases after MGd (FIG. 1A, 1B). Type of data set: in vivo, human. An excerpt: In particular, sections 20, 21, and 22 on the right panel (MGd+standard contrast) show brain metastases not visible in sections 20, 21, and 22 on the left panel (standard Gd contrast).
The subject of data set [2] is brain metastases from solid tumors. The note with it: patients with brain metastases from solid tumors receiving WBRT; cited from earlier work.
Data set [3] has as its system tumors. As to conditions: cited from earlier work.
Data set [4] has as its system tumors. The note with it: clinical results, magnetic resonance imaging; cited from earlier work.
Data set [5] has as its system brain metastases. The note with it: clinical results, MRI long after administration; cited from earlier work.

Regarding `CC(=O)[O-].CC(=O)[O-].CCc1c(CC)c2cc3nc(cnc4cc(OCCOCCOCCOC)c(OCCOCCOCCOC)cc4ncc4nc(cc1[n-]2)C(CCCO)=C4C)C(C)=C3CCCO.O.[Gd+3]` [MGd, motexafin gadolinium], the “MRI enhancement of brain metastases versus standard Gd contrast” value with brain metastases [1] (FIG. 1A, MGd+standard contrast vs standard Gd contrast) was “enhances brain metastases not visible with standard Gd contrast”. In addition, the “localization in brain metastases on MRI” value in the data set on brain metastases [1] (FIG. 1B, brain metastases from NSCLC, post MGd without contrast) is “localization in brain metastases from NSCLC”. In data set [2], the “neurological progression incl. neurologic and neurocognitive function” value is “provides benefit to patient's neurological progression”. In the data set with tumors [3] (clinical results), the accumulation in tumors entry is “selectively accumulated in tumors” and the well tolerated dose result is reported as “up to 6.3 mg/kg”. The radiologic response rate result in the data set with tumors [3] (combined with WBRT of 30 Gy in 10 fractions) is “high radiologic response rate”.
`CC(=O)[O-].CC(=O)[O-].CCc1c(CC)c2cc3nc(cnc4cc(OCCOCCOCCOC)c(OCCOCCOCCOC)cc4ncc4nc(cc1[n-]2)C(CCCO)=C4C)C(C)=C3CCCO.O.[Gd+3]` [Gd-Tex, Gadolinium Texaphyrin]: the biolocalization in tumors entry with tumors [4] is “selective biolocolization in tumors”. Moreover, the “tumor selectivity, depiction of brain metastases at MRI” value in the data set on brain metastases [5] is given as “tumor selective”.
